Experiments:
[1] = tested on: lesions and adenopathies with high metabolic activity; test: [18F]FDG PET/CT imaging in a patient; type: in vivo, human; parameters: key: Lesions and adenopathies positive for high metabolic activity were detected with [^18F]FDG (✓)
Text: A person (weight 60 kg; height 168 cm) diagnosed with advanced plantar malignant melanoma was enrolled in this study (Ethics Committee: Protocol No. 2023-MN02). The trial was approved based on the microdose concept and proof-of-concept studies. In addition, the ethical standards of the INCan Hospital based on the Declaration of Helsinki regarding human experimentation and the GMP certificate granted to ININ by the Mexican Ministry of Health were taken into account. The patient signed an informed consent form after receiving detailed information about the purpose of the study, which could help decide on treatment and monitor disease progression.
Table 2 provides a detailed analysis of the molecular imaging findings obtained in the [^99mTc]Tc-iPD-L1 SPECT/CT and [^18F]FDG/PET studies.

Stability in human serum = type: in vitro ADME; conditions: human serum (diluted 5x), 37 °C, n = 3
Method: (§1) The stability of [^99mTc]Tc-iPD-L1 and [^99mTc]Tc-WL12 was evaluated by diluting the samples in human serum (5x). The radiopharmaceuticals (n = 3) were heated at 37 °C and analyzed at 0.5, 3, and 24 h for radiochemical purity by size-exclusion radio-HPLC (ProteinPak 300SW, Waters Corporation, Milford, CT, USA).
(§2) The radioactivity from [^99mTc]Tc-iPD-L1 bound to serum proteins was 1.3 ± 0.8% at 30 min, 3.2 ± 1.3% at 3 h, and 7.6 ± 1.9% at 24 h. High radiochemical stability (>90% at 24 h) was also observed. In the case of [^99mTc]Tc-WL12, protein binding was 1.0 ± 0.4% at 30 min, 3.3 ± 0.9% at 3 h, and 6.0 ± 1.3% at 24 h, with a radiochemical purity of >90% at 24 h. Therefore, there was no significant difference […] in protein binding and serum stability between the radiotracers.

Serum protein binding = type: in vitro ADME; conditions: human serum (diluted 5x), 37 °C, size-exclusion radio-HPLC, n = 3
Method: as §1, §2

[2] = biological target: T1, human recombinant PD-L1 protein (Homo sapiens, UniProt Q9NZQ7); test: Radio-SDS-PAGE molecular recognition by PD-L1 protein; type: binding; conditions: radiopeptide (1 mg/mL) incubated with PD-L1 (200 µg/mL) 30 min at 37 °C; 15% SDS-PAGE, radio-TLC scan
T1 construct: purchased FineTest P6857
Method: SDS-PAGE gel electrophoresis was performed. Radioactivity distribution was determined using a radio-TLC scanner (Mini-Gita, 60–150 keV, BGO-Crystal, window 25 × 2 mm, thickness 5 mm, resolution optimized for Tc-99m; RayTest, Munich, Germany) to detect [^99mTc]Tc-iPD-L1 and [^99mTc]Tc-WL12 binding to PD-L1 protein.
Briefly, ^99mTc-labeled WL12 and iPD-L1 solutions (100 µL) (1 mg/mL peptide) were incubated with human recombinant PD-L1 protein (100 µL) (200 µg/mL; FineTest; Cat: P6857) (radiopeptide-PD-L1 interaction) or human integrin αVβ3 protein (100 µL) (negative control; 200 µg/mL) (Chemicom, Merck; Burlington, MA, USA) (radiopeptide-integrin interaction) for 30 min at 37 °C, after which the samples were diluted with Laemmli sample buffer (containing 10% SDS, Tris-Cl 125 mM, pH = 6.8, 12.5% glycerol and 0.005% bromophenol blue after dye) to give final protein concentrations of 25 µg/mL. […] Finally, the radioactivity distribution on the gels was scanned using a radio-TLC detector to determine the percentage of [^99mTc]Tc-iPD-L1 or [^99mTc]Tc-WL12 radioactivity associated with proteins.
In vitro-specific recognition of [^99mTc]Tc-iPD-L1 and [^99mTc]Tc-WL12 by the PD-L1 protein was performed using a combination of radio-TLC and SDS-PAGE (radio-SDS-PAGE). […] Therefore, the radioactivity associated with free peptides is in the front of the gel plate (around 60–70 mm). […]

[3] = tested on: HCC827 lung cancer tumors; test: Biodistribution in mice bearing HCC827 tumors; type: in vivo, mouse; conditions: mice bearing HCC827 tumors
Method: All animal procedures were performed following the Institutional Animal Care and Use Committee requirements under an approved protocol (No. 09-2018-2022) and the Ethical Regulations for the Handling of Laboratory Animals (NOM-062-ZOO-1999). Male Nu/Nu (CINVESTAV, I.PN., Mexico City, Mexico) mice, 6–8 weeks of age, were maintained in an aseptic barrier environment. Mice were inoculated by subcutaneous injection of 1 × 10^6 HCC827 cells/0.1 mL PBS into the upper back. Injection sites were monitored periodically for tumor progression. On day ten after tumor cell inoculation, animals were injected with 18.5 MBq (50 µL) of [^99mTc]Tc-iPD-L1 or 18.5 MBq (50 µL) of [^99mTc]Tc-WL12 by tail vein injection. The animals were sacrificed at 1, 3, and 24 h (n = 3). Kidneys, lungs, heart, liver, spleen, pancreas, small intestine, stomach, muscle, and blood and tumor samples were dissected. Radioactivity was determined in a sodium iodide detector. The results were stated as % injected dose/g.
After 24 h, the activity in tumors was 3.21 ± 0.45 %ID/g ([^99mTc]Tc-WL12) and 5.65 ± 0.98 %ID/g ([^99mTc]Tc-iPD-L1). […] This behavior is related to the higher lipophilicity of [^99mTc]Tc-iPD-L1 compared to [^99mTc]Tc-WL12.

T1 sequence (Q9NZQ7 19-290): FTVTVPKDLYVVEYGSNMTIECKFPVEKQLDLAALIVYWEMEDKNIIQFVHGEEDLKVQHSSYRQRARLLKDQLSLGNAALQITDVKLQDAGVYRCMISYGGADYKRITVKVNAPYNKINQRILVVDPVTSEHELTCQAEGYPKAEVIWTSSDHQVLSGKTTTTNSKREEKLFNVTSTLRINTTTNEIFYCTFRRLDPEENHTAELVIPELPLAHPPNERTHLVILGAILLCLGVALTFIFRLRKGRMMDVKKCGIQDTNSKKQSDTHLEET

OC[C@H]1OC(O)[C@H]([18F])[C@@H](O)[C@@H]1O (some centres unmarked) [[^18F]FDG]
[18F]FDG Uptake ([1]; patient with plantar malignant melanoma, PET/CT, Mediastinal adenopathies level 4R, 8 and 10L up to 12 mm): ✓
[18F]FDG Uptake ([1]; same patient, Adenopathies in the entire intramuscular tract of the left lower extremity up to 14 mm): ✓
[18F]FDG Uptake ([1]; same patient, Adenopathies of the common, internal, external, and obturator iliac chains up to 26 mm): ✓
[18F]FDG Uptake ([1]; same patient, Left femoral adenopathies of 12 mm): ✓
[18F]FDG Uptake ([1]; same patient, Left inguinal adenopathies forming clusters of 29 mm): ✓
[18F]FDG Uptake ([1]; same patient, Left popliteal hollow adenopathies up to 20 mm): ✓
[18F]FDG Uptake ([1]; same patient, Left retrocrural adenopathy of 9 mm): ✓
[18F]FDG Uptake ([1]; same patient, Liver, poorly defined hypodense images, the largest in segment 7): ✓
[18F]FDG Uptake ([1]; same patient, Retroperitoneal paraaortic and intercavoaortic adenopathies of 14 mm): ✓
[18F]FDG Uptake ([1]; same patient, exophytic lesion in the heel region of the left foot, 67 × 35 mm): ✓

CC(C)C[C@@H]1NC(=O)[C@H](CC(C)C)NC(=O)[C@H](Cc2c[nH]c3ccccc23)NC(=O)[C@H](CO)NC(=O)[C@H](Cc2c[nH]c3ccccc23)NC(=O)[C@@H]2CCCN2C(=O)[C@H](CC(C)C)NC(=O)[C@H](Cc2c[nH]cn2)NC(=O)[C@@H]2CCCN2C(=O)[C@H](CC(N)=O)NC(=O)[C@H](C)NC(=O)[C@H](Cc2ccc(O)cc2)NC(=O)[C@H](CS)NC(=O)[C@H](CCCCNC(=O)c2ccc(NN)nc2)NC1=O [[^99mTc]Tc-iPD-L1, metal not drawn]
stability in human serum (Stability in human serum; 30 min, 3 h and 24 h, size-exclusion radio-HPLC): remained stable
remaining at 24 h (Stability in human serum; 24 h, size-exclusion radio-HPLC (ProteinPak 300SW), read-out: radiochemical stability / radiochemical purity in human serum at 24 h): > 90%
radioactivity bound to serum proteins at 30 min (Serum protein binding; 30 min): 1.3 ± 0.8%
radioactivity bound to serum proteins at 3 h (Serum protein binding; 3 h): 3.2 ± 1.3%
radioactivity bound to serum proteins at 24 h (Serum protein binding; 24 h): 7.6 ± 1.9%
radioactivity detected at the distance associated with the PD-L1 protein [2]: 30%
activity in blood, liver, and kidney compared to [99mTc]Tc-WL12 [3]: higher activity in blood, liver, and kidney

From article PMC10747430, “^99mTc-Labeled Cyclic Peptide Targeting PD-L1 as a Novel Nuclear Imaging Probe” (Pharmaceutics, 2023)
